{"source": "paper PMC5869871", "about": "(Investigational New Drugs, 2017)", "key": {"[1]": {"test": "Study 1 safety assessment (adverse events, laboratory results, vital signs, ECG)", "type": "in vivo, human", "method": "Safety was evaluated based on the incidence of adverse events, and changes from baseline in vital signs, ECGs, weight and clinical laboratory results and ECOG status."}, "[2]": {"test": "Study 2 safety assessment (adverse events, laboratory results, vital signs, ECG)", "type": "in vivo, human", "description": "Study 2 was a phase 1, open-label study in patients with advanced solid tumors or relapsed/refractory lymphomas.\nPatients also received oral solution doses of 200 mg itraconazole QD on Days 5 through 13. […] Itraconazole was administered in the study center on Days 5, and 10 through 13 with the remaining doses being administered at home by the patients."}, "[3]": {"details": "cited from earlier work"}, "[4]": {"details": "cited from earlier work", "remark": "listed apart in the source"}, "[5]": {"test_system": "CYP3A4", "set-up": "method as in Takeda data on file", "details": "ref Takeda data on file; cited from earlier work"}, "[6]": {"test": "Study 2: single-dose plasma pharmacokinetics of alisertib, M1 and M2 with and without itraconazole", "details": "for t1/2 / Tmax / half-life: single 30 mg alisertib ECT; for t1/2 / half-life: arithmetic mean (SD); for Tmax: median (minimum, maximum); for half-life: t1/2, Study 2"}, "[7]": {"test": "Study 1: single-dose plasma pharmacokinetics of alisertib, M1 and M2 with and without esomeprazole or rifampin", "details": "for t1/2 / half-life: arithmetic mean (SD); for AUC(0-inf): AUC0-inf; for AUC(0-t): AUC0-last"}, "[8]": {"details": "human, in vivo; for mean t1/2 / median Tmax: 50 mg"}, "[9]": {"details": "in vivo; for AUC0-last / AUC(0-inf) / Cmax / Tmax / t1/2: human, 30 mg"}, "[10]": {"details": "Study 2, absence of itraconazole"}, "[11]": {"details": "human, plasma, oral, 50 mg, Study 1 esomeprazole arm, single 50 mg alisertib ECT, absence of esomeprazole, geometric mean (%CV)"}, "[12]": {"details": "human, plasma, oral, 50 mg, Study 1 rifampin arm, single 50 mg alisertib ECT, absence of rifampin, geometric mean (%CV)"}, "[13]": {"details": "human, plasma, oral, Study 1 esomeprazole arm, single 50 mg alisertib ECT, presence of esomeprazole 40 mg QD, geometric mean (%CV)"}, "[14]": {"details": "human, plasma, oral, Study 1 rifampin arm, single 50 mg alisertib ECT, presence of rifampin 600 mg QD, geometric mean (%CV)"}}, "note": "Read-outs that look alike come from different tables or passages of the source. Marks after values point to notes of the source that are not given here.", "data": [{"smiles": "COc1cc(Nc2ncc3c(n2)-c2ccc(Cl)cc2C(c2c(F)cccc2OC)=NC3)ccc1C(=O)O", "note": "[Alisertib]", "values": [{"measurement": "patients who died during the study", "setting": "[1]; Study 1, none deemed related to study treatment", "value": "Four"}, {"measurement": "Alopecia, treatment-related", "setting": "[1]; human, in vivo", "value": "17 (31) n (%)"}, {"measurement": "Anaemia, treatment-related", "setting": "[1]; human, in vivo", "value": "10 (18) n (%)"}, {"measurement": "Decreased appetite, treatment-related", "setting": "[1]; human, in vivo", "value": "8 (15) n (%)"}, {"measurement": "Dehydration, treatment-related", "setting": "[1]; human, in vivo", "value": "6 (11) n (%)"}, {"measurement": "Diarrhea, treatment-related", "setting": "[1]; human, in vivo", "value": "18 (33) n (%)"}, {"measurement": "Fatigue, treatment-related", "setting": "[1]; human, in vivo", "value": "14 (25) n (%)"}, {"measurement": "Leukopenia, treatment-related", "setting": "[1]; human, in vivo", "value": "7 (13) n (%)"}, {"measurement": "Nausea, treatment-related", "setting": "[1]; human, in vivo", "value": "10 (18) n (%)"}, {"measurement": "Neutropenia, treatment-related", "setting": "[1]; human, in vivo", "value": "17 (31) n (%)"}, {"measurement": "Stomatitis, treatment-related", "setting": "[1]; human, in vivo", "value": "14 (25) n (%)"}, {"measurement": "Thrombocytopenia, treatment-related", "setting": "[1]; human, in vivo", "value": "7 (13) n (%)"}, {"measurement": "Vomiting, treatment-related", "setting": "[1]; human, in vivo", "value": "8 (15) n (%)"}, {"measurement": "patients with at least 1 adverse event", "setting": "[1]; human, in vivo", "value": "52 (95%) patients"}, {"measurement": "treatment-related serious adverse events nausea and vomiting (each)", "setting": "[1]; human, in vivo", "value": 2, "unit": "patients"}, {"measurement": "leukocytes and neutrophils over the course of the study", "setting": "[1]; in vivo", "value": "decreases were observed"}, {"measurement": "patients with other serious adverse events considered treatment related", "setting": "[1]; in vivo", "value": "Five"}, {"measurement": "vital signs or ECG findings", "setting": "[1]; in vivo", "value": "no notable trends"}, {"measurement": "leukocytes and neutrophils over the course of the study", "setting": "[2]", "value": "decreases were observed"}, {"measurement": "vital signs or ECG findings", "setting": "[2]", "value": "no notable trends"}, {"measurement": "aqueous solubility", "setting": "[3]; at acidic pH", "value": "low"}, {"measurement": "pKa", "setting": "[3]; free acid", "value": 4.53}, {"measurement": "apparent oral clearance", "setting": "[4]", "value": 4.25, "unit": "L/h"}, {"measurement": "CYP3A4-mediated metabolism as share of alisertib total clearance (estimated)", "setting": "[5]", "value": "approximately 60%"}, {"measurement": "t1/2", "setting": "[6]; [10]", "value": "22.6 (10.3)^k h"}, {"measurement": "Tmax", "setting": "[6]; [10]", "value": "2.9 (1.1, 10) h"}, {"measurement": "t1/2", "setting": "[6]; Study 2, presence of itraconazole 200 mg QD", "value": "25.4 (9.2)^l h"}, {"measurement": "change in Cmax in the presence of itraconazole", "setting": "[6]; Study 2, single 30 mg alisertib, itraconazole 200 mg QD versus alone", "value": "did not alter"}, {"measurement": "AUC(0-inf)", "setting": "[6]; human, plasma, oral, 30 mg", "value": 14.8, "unit": "µM·h"}, {"measurement": "AUC(0-t)", "setting": "[6]; human, plasma, oral, 30 mg", "value": 13.5, "unit": "µM·h"}, {"measurement": "Cmax", "setting": "[6]; human, plasma, oral, 30 mg", "value": 986, "unit": "nM"}, {"measurement": "Tmax", "setting": "[6]; human, plasma, oral, 30 mg, Tmax, Study 2, absence of itraconazole", "value": "~3", "unit": "h"}, {"measurement": "half-life", "setting": "[6]; human, plasma, oral, 30 mg, absence of itraconazole", "value": "~23", "unit": "h"}, {"measurement": "Tmax", "setting": "[6]; human, plasma, oral, Tmax, Study 2, presence of itraconazole 200 mg QD", "value": 2.9, "unit": "h"}, {"measurement": "half-life", "setting": "[6]; human, plasma, oral, presence of itraconazole 200 mg QD", "value": "~25", "unit": "h"}, {"measurement": "increase in alisertib AUCinf (systemic exposure) by esomeprazole", "setting": "[7]; Study 1, single 50 mg alisertib, esomeprazole 40 mg QD", "value": 28, "unit": "%"}, {"measurement": "decrease in alisertib AUCinf (AUC) by rifampin", "setting": "[7]; Study 1, single 50 mg alisertib, rifampin 600 mg QD", "value": "approximately 50%"}, {"measurement": "change in Cmax in the presence of rifampin", "setting": "[7]; Study 1, single 50 mg alisertib, rifampin 600 mg QD versus alone, metabolites not statistically compared", "value": "did not alter"}, {"measurement": "t1/2", "setting": "[7]; Study 1 esomeprazole arm, single 50 mg alisertib ECT, absence of esomeprazole", "value": "16.1 (5.4)^b h"}, {"measurement": "Tmax", "setting": "[7]; Study 1 esomeprazole arm, single 50 mg alisertib ECT, presence of esomeprazole 40 mg QD, median (minimum, maximum)", "value": "3 (1, 8) h"}, {"measurement": "t1/2", "setting": "[7]; Study 1 rifampin arm, single 50 mg alisertib ECT, absence of rifampin", "value": "16.3 (6.6)^h"}, {"measurement": "AUC0-last", "setting": "[7]; Study 1 rifampin arm, single 50 mg alisertib ECT, absence of rifampin, plasma, geometric mean (%CV)", "value": "17,936 (43%) nM*h"}, {"measurement": "t1/2", "setting": "[7]; Study 1 rifampin arm, single 50 mg alisertib ECT, presence of rifampin 600 mg QD", "value": "8.2 (5.5)^i h"}, {"measurement": "Tmax", "setting": "[7]; Study 1 rifampin arm, single 50 mg alisertib ECT, presence of rifampin 600 mg QD, median (minimum, maximum)", "value": "2.1 (1, 6) h"}, {"measurement": "AUC(0-inf)", "setting": "[7]; [11]", "value": 20.3, "unit": "µM·h"}, {"measurement": "AUC(0-inf)", "setting": "[7]; [12]", "value": 16.2, "unit": "µM·h"}, {"measurement": "AUC(0-t)", "setting": "[7]; [11]", "value": 19.6, "unit": "µM·h"}, {"measurement": "Cmax", "setting": "[7]; [11]", "value": 1500, "unit": "nM"}, {"measurement": "Cmax", "setting": "[7]; [12]", "value": 1450, "unit": "nM"}, {"measurement": "Tmax", "setting": "[7]; human, plasma, oral, 50 mg, Tmax, Study 1 esomeprazole arm, single 50 mg alisertib ECT, absence of esomeprazole, median (minimum, maximum)", "value": 4, "unit": "h"}, {"measurement": "Tmax", "setting": "[7]; human, plasma, oral, 50 mg, Tmax, Study 1 rifampin arm, single 50 mg alisertib ECT, absence of rifampin, median (minimum, maximum)", "value": 4, "unit": "h"}, {"measurement": "Tmax", "setting": "[7]; human, plasma, oral, 50 mg, median Tmax, Study 1, both treatment arms, 50 mg alisertib administered alone", "value": "3 to 4", "unit": "h"}, {"measurement": "half-life", "setting": "[7]; human, plasma, oral, 50 mg, t1/2, Study 1 esomeprazole arm, single 50 mg alisertib ECT, absence of esomeprazole", "value": "~16", "unit": "h"}, {"measurement": "half-life", "setting": "[7]; human, plasma, oral, 50 mg, t1/2, Study 1 rifampin arm, single 50 mg alisertib ECT, absence of rifampin", "value": "~16", "unit": "h"}, {"measurement": "AUC(0-inf)", "setting": "[7]; [13]", "value": 25.9, "unit": "µM·h"}, {"measurement": "AUC(0-inf)", "setting": "[7]; [14]", "value": 8.65, "unit": "µM·h"}, {"measurement": "AUC(0-t)", "setting": "[7]; [13]", "value": 24.5, "unit": "µM·h"}, {"measurement": "AUC(0-t)", "setting": "[7]; [14]", "value": 9.06, "unit": "µM·h"}, {"measurement": "Cmax", "setting": "[7]; [13]", "value": 1720, "unit": "nM"}, {"measurement": "Tmax", "setting": "[7]; human, plasma, oral, Tmax, Study 1 rifampin arm, single 50 mg alisertib ECT, presence of rifampin 600 mg QD, median (minimum, maximum)", "value": "~2", "unit": "h"}, {"measurement": "half-life", "setting": "[7]; human, plasma, oral, t1/2, Study 1 esomeprazole arm, single 50 mg alisertib ECT, presence of esomeprazole 40 mg QD", "value": "~16", "unit": "h"}, {"measurement": "half-life", "setting": "[7]; human, plasma, oral, t1/2, Study 1 rifampin arm, single 50 mg alisertib ECT, presence of rifampin 600 mg QD", "value": "~8", "unit": "h"}]}, {"smiles": "COc1cc(Nc2ncc3c(n2)-c2ccc(Cl)cc2C(c2c(F)cccc2OC)=NC3)ccc1C(=O)O[C@@H]1O[C@H](C(=O)O)[C@@H](O)[C@H](O)[C@H]1O", "note": "[M1, alisertib acylglurcuronide]", "values": [{"measurement": "mean t1/2", "setting": "[8]", "value": "15 to 18", "unit": "h"}, {"measurement": "median Tmax", "setting": "[8]", "value": 4, "unit": "h"}, {"measurement": "AUC0-last", "setting": "[9]", "value": "4962 (164%) nM*h"}, {"measurement": "AUC(0-inf)", "setting": "[9]", "value": "5758 (174%)^d nM*h"}, {"measurement": "Cmax", "setting": "[9]", "value": 287, "unit": "nM"}, {"measurement": "Tmax", "setting": "[9]", "value": "3.1 (1, 23) h"}, {"measurement": "t1/2", "setting": "[9]", "value": "23.0 (11.2)^h"}]}, {"smiles": "COc1cc(Nc2ncc3c(n2)-c2ccc(Cl)cc2C(c2c(O)cccc2F)=NC3)ccc1C(=O)O", "note": "[M2, O-desmethyl alisertib]", "values": [{"measurement": "mean t1/2", "setting": "[8]", "value": "19.1 to 22", "unit": "h"}, {"measurement": "median Tmax", "setting": "[8]", "value": 10, "unit": "h"}, {"measurement": "change in mean AUC0-inf in the presence of rifampin", "setting": "[8]; 600 mg", "value": "increased"}, {"measurement": "change in mean t1/2 in the presence of rifampin", "setting": "[8]; 600 mg", "value": "decreased"}, {"measurement": "AUC0-last", "setting": "[9]", "value": "4977 (58%) nM*h"}, {"measurement": "AUC(0-inf)", "setting": "[9]", "value": "4926 (41%)^i nM*h"}, {"measurement": "Cmax", "setting": "[9]", "value": 100, "unit": "nM"}, {"measurement": "Tmax", "setting": "[9]", "value": "9.4 (3.0, 48) h"}, {"measurement": "t1/2", "setting": "[9]", "value": "28 (9.2)^i h"}, {"measurement": "systemic exposure metabolite/parent ratio following multiple dose itraconazole", "setting": "[9]", "value": "decreased"}]}]}
